# Tests used:
# BRD4 (BDII_E352-M457) = BRD4 (BDII_E352-M457) (Homo sapiens (Human), UniProt O60885); test: TR-FRET bromodomain binding assay, BRD4 BDII; conditions: mean Ki, calculated from IC50, probe Kd and probe concentration
# Protocol: (§1) A time-resolved fluorescence resonance energy transfer (TR-FRET) assay was used to determine the affinities of compounds of the Examples listed in Table 1 for each bromodomain of BRD4. His-tagged first (BDI: amino acids K57-E168) and second (BDII: amino acids E352-M457) bromodomains of BRD4 were expressed and purified. An Alexa647-labeled BET-inhibitor was used as the fluorescent probe in the assay.
# (§2) Compound dilution series were prepared in DMSO via an approximately 3-fold serial dilution. Compound dilutions were added directly into white, low-volume assay plates (Perkin Elmer Proxiplate 384 Plus#6008280) using a Labcyte Echo in conjunction with Labcyte Access and Thermo Multidrop CombinL robotics. Compounds were then suspended in eight microliters (μL) of assay buffer (20 mM Sodium Phosphate, pH 6.0, 50 mM NaCl, 1 mM Ethylenediaminetetraacetic acid disodium salt dihydrate, 0.01% Triton X-100, 1 mM DL-Dithiothreitol) containing His-tagged bromodomain, Europium-conjugated anti-His antibody (Invitrogen PV5596) and Alexa-647-conjugated probe.
# (§3) The final concentration of 1× assay mixture contained 2% DMSO, 12 nM His tagged BRD4 (BDI_K57-E168) and 100 nM probe or 4 nM His tagged BRD4 (BDII_E352-M457) and 30 nM probe, and 1 nM Europium-conjugated anti-His-tag antibody, and compound concentrations in the range of: 49.02 μM-0.61 nM or 0.98 μM-0.15 nM.
# (§4) After a one-hour equilibration at room temperature, TR-FRET ratios were determined using an Envision multilabel plate reader (Ex 340, Em 495/520).
# (§5) TR-FRET data were normalized to the means of 24 no-compound controls (“high”) and 8 controls containing 1 μM un-labeled probe (“low”). Percent inhibition was plotted as a function of compound concentration and the data were fit with the 4 parameter logistic equation to obtain IC50s. Inhibition constants (Ki) were calculated from the IC50s, probe Kd and probe concentration.
# BRD4 (BDI_K57-E168) = BRD4 (BDI_K57-E168) (Homo sapiens (Human), UniProt O60885); test: TR-FRET bromodomain binding assay, BRD4 BDI; conditions: mean Ki, calculated from IC50, probe Kd and probe concentration
# Protocol: as §1, §2, §3, §4, §5
SMILES,Ki (BRD4 (BDII_E352-M457)),Ki (BRD4 (BDI_K57-E168))
"CCNC(=O)c1cc2c(-c3cc([C@](C)(O)CO)ccc3Oc3c(C)cccc3C)cn(C)c(=O)c2[nH]1 (single isomer, unassigned) [Example 69, 4-{5-[(25)-1,2-dihydroxypropan-2-yl]-2-(2,6-dimethylphenoxy)phenyl}-N-ethyl-6-methyl-7-oxo-6,7-dihydro-1H-pyrrolo[2,3-c]pyridine-2-carboxamide]",2.3 nM,499 nM
"CCNC(=O)c1cc2c(-c3cc(S(C)(=O)=O)ccc3Oc3ccc(F)cc3F)cn(C)c(=O)c2[nH]1 [Compound Y, 4-[2-(2,4-difluorophenoxy)-5-(methylsulfonyl)phenyl]-N-ethyl-6-methyl-7-oxo-6,7-dihydro-1H-pyrrolo[2,3-c]pyridine-2-carboxamide, reference compound]",1.32 nM,21.6 nM
"Cn1cc(-c2cc(CO)ccc2Oc2ccccc2)c2cc[nH]c2c1=O [Compound Z, 4-[5-(hydroxymethyl)-2-phenoxyphenyl]-6-methyl-1,6-dihydro-7H-pyrrolo[2,3-c]pyridin-7-one, reference compound]",15.5 nM,69.9 nM
"CCNC(=O)c1cc2c(-c3cc(C(C)(C)O)cnc3Oc3c(C)cccc3C)cn(C)c(=O)c2[nH]1 [Example 1, 4-[2-(2,6-dimethylphenoxy)-5-(2-hydroxypropan-2-yl)pyridin-3-yl]-N-ethyl-6-methyl-7-oxo-6,7-dihydro-1H-pyrrolo[2,3-c]pyridine-2-carboxamide]",2.3 nM,462 nM
"CCNC(=O)c1cc2c(-c3cc(C(O)(CC)CC)cnc3Oc3c(C)cccc3C)cn(C)c(=O)c2[nH]1 [Example 2, 4-[2-(2,6-dimethylphenoxy)-5-(3-hydroxypentan-3-yl)pyridin-3-yl]-N-ethyl-6-methyl-7-oxo-6,7-dihydro-1H-pyrrolo[2,3-c]pyridine-2-carboxamide]",3 nM,220 nM
"CCNC(=O)c1cc2c(-c3cc(C(C)(C)O)ccc3Oc3c(C)cccc3C)cn(C)c(=O)c2[nH]1 [Example 3, 4-[2-(2,6-dimethylphenoxy)-5-(2-hydroxypropan-2-yl)phenyl]-N-ethyl-6-methyl-7-oxo-6,7-dihydro-1H-pyrrolo[2,3-c]pyridine-2-carboxamide]",1.1 nM,404 nM
"CCNC(=O)c1cc2c(-c3cc(C4(O)CC=CC4)cnc3Oc3c(C)cccc3C)cn(C)c(=O)c2[nH]1 [Example 4, 4-[2-(2,6-dimethylphenoxy)-5-(1-hydroxycyclopent-3-en-1-yl)pyridin-3-yl]-N-ethyl-6-methyl-7-oxo-6,7-dihydro-1H-pyrrolo[2,3-c]pyridine-2-carboxamide]",3.1 nM,215 nM
"CCNC(=O)c1cc2c(-c3cc(C4(O)CC=CC4)ccc3Oc3c(C)cccc3C)cn(C)c(=O)c2[nH]1 [Example 5, 4-[2-(2,6-dimethylphenoxy)-5-(1-hydroxycyclopent-3-en-1-yl)phenyl]-N-ethyl-6-methyl-7-oxo-6,7-dihydro-1H-pyrrolo[2,3-c]pyridine-2-carboxamide]",1.6 nM,187 nM
"CCNC(=O)c1cc2c(-c3cc(C4(O)CCCC4)cnc3Oc3c(C)cccc3C)cn(C)c(=O)c2[nH]1 [Example 6, 4-[2-(2,6-dimethylphenoxy)-5-(1-hydroxycyclopentyl)pyridin-3-yl]-N-ethyl-6-methyl-7-oxo-6,7-dihydro-1H-pyrrolo[2,3-c]pyridine-2-carboxamide]",2.3 nM,273 nM
"CCNC(=O)c1cc2c(-c3cc(C(O)(CC)c4ccccc4)cnc3Oc3c(C)cccc3C)cn(C)c(=O)c2[nH]1 (stereo not shown) [Example 7, 4-[2-(2,6-dimethylphenoxy)-5-(1-hydroxy-1-phenylpropyl)pyridin-3-yl]-N-ethyl-6-methyl-7-oxo-6,7-dihydro-1H-pyrrolo[2,3-c]pyridine-2-carboxamide]",4.1 nM,632 nM
"CCNC(=O)c1cc2c(-c3cc(C(C)(O)CC)cnc3Oc3c(C)cccc3C)cn(C)c(=O)c2[nH]1 (stereo not shown) [Example 8, 4-[2-(2,6-dimethylphenoxy)-5-(2-hydroxybutan-2-yl)pyridin-3-yl]-N-ethyl-6-methyl-7-oxo-6,7-dihydro-1H-pyrrolo[2,3-c]pyridine-2-carboxamide]",2.3 nM,359 nM
"CCNC(=O)c1cc2c(-c3cc(C(O)(CC)c4ccc(F)cc4)cnc3Oc3c(C)cccc3C)cn(C)c(=O)c2[nH]1 (stereo not shown) [Example 9, 4-{2-(2,6-dimethylphenoxy)-5-[1-(4-fluorophenyl)-1-hydroxypropyl]pyridin-3-yl}-N-ethyl-6-methyl-7-oxo-6,7-dihydro-1H-pyrrolo[2,3-c]pyridine-2-carboxamide]",3.8 nM,601 nM
"CCNC(=O)c1cc2c(-c3cc(C(O)(CC)CC(C)C)cnc3Oc3c(C)cccc3C)cn(C)c(=O)c2[nH]1 (stereo not shown) [Example 10, 4-[2-(2,6-dimethylphenoxy)-5-(3-hydroxy-5-methylhexan-3-yl)pyridin-3-yl]-N-ethyl-6-methyl-7-oxo-6,7-dihydro-1H-pyrrolo[2,3-c]pyridine-2-carboxamide]",5.4 nM,715 nM
"CCNC(=O)c1cc2c(-c3cc(C(O)(CC)C4CCCC4)cnc3Oc3c(C)cccc3C)cn(C)c(=O)c2[nH]1 (stereo not shown) [Example 11, 4-[5-(1-cyclopentyl-1-hydroxypropyl)-2-(2,6-dimethylphenoxy)pyridin-3-yl]-N-ethyl-6-methyl-7-oxo-6,7-dihydro-1H-pyrrolo[2,3-c]pyridine-2-carboxamide]",2.6 nM,170 nM

# Next, values leading:
Ki (BRD4 (BDII_E352-M457)),Ki (BRD4 (BDI_K57-E168)),SMILES
2.2 nM,341 nM,"CCNC(=O)c1cc2c(-c3cc([C@@](C)(O)CO)ccc3Oc3c(C)cccc3C)cn(C)c(=O)c2[nH]1 (single isomer, unassigned) [Example 68]"
1.9 nM,97 nM,"CCNC(=O)c1cc2c(-c3cc(C(O)(CC)C4CC4)cnc3Oc3c(C)cccc3C)cn(C)c(=O)c2[nH]1 (stereo not shown) [Example 12, 4-[5-(1-cyclopropyl-1-hydroxypropyl)-2-(2,6-dimethylphenoxy)pyridin-3-yl]-N-ethyl-6-methyl-7-oxo-6,7-dihydro-1H-pyrrolo[2,3-c]pyridine-2-carboxamide]"
2 nM,114 nM,"CCNC(=O)c1cc2c(-c3cc(C(O)(CC)C(C)CC)cnc3Oc3c(C)cccc3C)cn(C)c(=O)c2[nH]1 (stereo not shown) [Example 13, 4-[2-(2,6-dimethylphenoxy)-5-(3-hydroxy-4-methylhexan-3-yl)pyridin-3-yl]-N-ethyl-6-methyl-7-oxo-6,7-dihydro-1H-pyrrolo[2,3-c]pyridine-2-carboxamide]"
2.3 nM,965 nM,"CCNC(=O)c1cc2c(-c3cc(C(O)(CC)CCc4ccccc4)cnc3Oc3c(C)cccc3C)cn(C)c(=O)c2[nH]1 (stereo not shown) [Example 14, 4-[2-(2,6-dimethylphenoxy)-5-(3-hydroxy-1-phenylpentan-3-yl)pyridin-3-yl]-N-ethyl-6-methyl-7-oxo-6,7-dihydro-1H-pyrrolo[2,3-c]pyridine-2-carboxamide]"
26.5 nM,1840 nM,"CCNC(=O)c1cc2c(-c3cc(C(O)(CC)Cc4ccc(F)cc4)cnc3Oc3c(C)cccc3C)cn(C)c(=O)c2[nH]1 (stereo not shown) [Example 15, 4-{2-(2,6-dimethylphenoxy)-5-[1-(4-fluorophenyl)-2-hydroxybutan-2-yl]pyridin-3-yl}-N-ethyl-6-methyl-7-oxo-6,7-dihydro-1H-pyrrolo[2,3-c]pyridine-2-carboxamide]"
2.3 nM,333 nM,"CCNC(=O)c1cc2c(-c3cc(C(C)(O)c4ccccc4)cnc3Oc3c(C)cccc3C)cn(C)c(=O)c2[nH]1 (stereo not shown) [Example 16, 4-[2-(2,6-dimethylphenoxy)-5-(1-hydroxy-1-phenylethyl)pyridin-3-yl]-N-ethyl-6-methyl-7-oxo-6,7-dihydro-1H-pyrrolo[2,3-c]pyridine-2-carboxamide]"
3 nM,467 nM,"CCNC(=O)c1cc2c(-c3cc(C(C)(O)c4ccc(F)cc4)cnc3Oc3c(C)cccc3C)cn(C)c(=O)c2[nH]1 (stereo not shown) [Example 17, 4-{2-(2,6-dimethylphenoxy)-5-[1-(4-fluorophenyl)-1-hydroxyethyl]pyridin-3-yl}-N-ethyl-6-methyl-7-oxo-6,7-dihydro-1H-pyrrolo[2,3-c]pyridine-2-carboxamide]"
3.8 nM,449 nM,"CCNC(=O)c1cc2c(-c3cc(C(C)(O)CC(C)C)cnc3Oc3c(C)cccc3C)cn(C)c(=O)c2[nH]1 (stereo not shown) [Example 18, 4-[2-(2,6-dimethylphenoxy)-5-(2-hydroxy-4-methylpentan-2-yl)pyridin-3-yl]-N-ethyl-6-methyl-7-oxo-6,7-dihydro-1H-pyrrolo[2,3-c]pyridine-2-carboxamide]"
4 nM,196 nM,"CCNC(=O)c1cc2c(-c3cc(C(C)(O)C(C)C)cnc3Oc3c(C)cccc3C)cn(C)c(=O)c2[nH]1 (stereo not shown) [Example 19, 4-[2-(2,6-dimethylphenoxy)-5-(2-hydroxy-3-methylbutan-2-yl)pyridin-3-yl]-N-ethyl-6-methyl-7-oxo-6,7-dihydro-1H-pyrrolo[2,3-c]pyridine-2-carboxamide]"

# From patent US10633379B2, “Bromodomain inhibitors” (AbbVie Inc., priority 2016, dated 2020)
